Measured values from patent US8242160B2, “Inhibitors of ubiquitin E1” (The United States of America, as represented by the …, priority 2005, dated 2012).

Key:
[1] = system: U2O cells; test: Proteasome inhibitor-induced accumulation of ubiquitylated proteins; type: cell-based; conditions: 50 μM with ALLN 50 μM, four hours
[2] = target: T1, GST-UbcH5B (Homo sapiens, UniProt P62837); test: E1+E2 assay: formation of E2-ubiquitin complex; type: biochemical; conditions: E1 preloaded with 32P-labeled ubiquitin, then E2 added with compound
T1 construct: made in house; host or cells: bacteria
Protocol: One way that the compounds might inactivate E1 is by alkylating or otherwise irreversibly inactivating active site cysteines. Like E1, E2 also uses a cysteine to form thiolester bond with ubiquitin. Inhibitors that directly act on the cysteine of E1 might therefore also affect E2 activity, and thus function in a relatively non-specific manner. […]
c. E1+E2 Assay with Immobilized E2 • 20 pmoles of bacterially-expressed GST-UbcH5B are bound to GS beads for 30 minutes at room temperature. […] This is followed by resolution by SDS-PAGE under non-reducing conditions and exposure as above.

[3] = system: IκBα; test: TNFα-induced IκBα phosphorylation in cells; type: cell-based; conditions: 1 minute stimulation
[4] = system: Nedd4; test: In vitro autoubiquitination of HECT E3 Nedd4; type: biochemical
Protocol: It was then evaluated whether 4-[4-(5-nitro-furan-2-ylmethylene)-3,5-dioxo-pyrazolidin-1-yl]-benzoic acid methyl acid blocks autoubiquitination of both RING finger E3s (Mdm2) and HECT E3s (Nedd4) in vitro.
5 pmole per experimental point of bacterially expressed GST-Mdm2 (or GST-Nedd) is coupled to glutathione Sepharose (GS) for 30 minutes at room temperature with tumbling, followed by 3× wash with 50 mM Tris pH 7.5. Following this, 20 μl of 1× buffer is added (40 μl 10× reaction buffer*, 40 μl 10× PCK**, 320 μl dH2O). The test compound in DMSO is then added to the desired concentration with an equal volume of DMSO used as a control. Samples are incubated with shaking for 1 hr at 23° C. To carry out the reaction, a pre-made cocktail of Rabbit E1 (Calbiochem #6620700)/UbCH5B/^32P Ub cocktail (1 μl/0.5 μl/1 μl) is added followed by 15 minutes shaking at 30° C. The reaction is terminated by addition of 8 μl 4× reducing SDS-PAGE loading buffer. After dissociating proteins from the beads at 100° C. for 2 minutes, samples are resolved on 6% PAGE followed by exposure of the dried gel to phosphor screen. Note: ^32P Ub is derived from GST-Ub that has been engineered to include a PKA phosphorylation site. This fusion protein is purified on glutathione Sepharose, phosphorylated, following this, the ^32P Ub ubiquitin is cleaved and purified away from the thrombin.

[5] = target: T2, Rabbit E1 (Oryctolagus cuniculus, UniProt Q29504); test: E1 only assay: thiolester linkage between 32P-labeled ubiquitin and E1; type: biochemical; conditions: gel-based assay with 32P-labeled ubiquitin; stated after block of E1-ubiquitin thiolester formation (FIG. 1B)
T2 construct: purchased Calbiochem #6620700
T2 sequence (Q29504 1-1058): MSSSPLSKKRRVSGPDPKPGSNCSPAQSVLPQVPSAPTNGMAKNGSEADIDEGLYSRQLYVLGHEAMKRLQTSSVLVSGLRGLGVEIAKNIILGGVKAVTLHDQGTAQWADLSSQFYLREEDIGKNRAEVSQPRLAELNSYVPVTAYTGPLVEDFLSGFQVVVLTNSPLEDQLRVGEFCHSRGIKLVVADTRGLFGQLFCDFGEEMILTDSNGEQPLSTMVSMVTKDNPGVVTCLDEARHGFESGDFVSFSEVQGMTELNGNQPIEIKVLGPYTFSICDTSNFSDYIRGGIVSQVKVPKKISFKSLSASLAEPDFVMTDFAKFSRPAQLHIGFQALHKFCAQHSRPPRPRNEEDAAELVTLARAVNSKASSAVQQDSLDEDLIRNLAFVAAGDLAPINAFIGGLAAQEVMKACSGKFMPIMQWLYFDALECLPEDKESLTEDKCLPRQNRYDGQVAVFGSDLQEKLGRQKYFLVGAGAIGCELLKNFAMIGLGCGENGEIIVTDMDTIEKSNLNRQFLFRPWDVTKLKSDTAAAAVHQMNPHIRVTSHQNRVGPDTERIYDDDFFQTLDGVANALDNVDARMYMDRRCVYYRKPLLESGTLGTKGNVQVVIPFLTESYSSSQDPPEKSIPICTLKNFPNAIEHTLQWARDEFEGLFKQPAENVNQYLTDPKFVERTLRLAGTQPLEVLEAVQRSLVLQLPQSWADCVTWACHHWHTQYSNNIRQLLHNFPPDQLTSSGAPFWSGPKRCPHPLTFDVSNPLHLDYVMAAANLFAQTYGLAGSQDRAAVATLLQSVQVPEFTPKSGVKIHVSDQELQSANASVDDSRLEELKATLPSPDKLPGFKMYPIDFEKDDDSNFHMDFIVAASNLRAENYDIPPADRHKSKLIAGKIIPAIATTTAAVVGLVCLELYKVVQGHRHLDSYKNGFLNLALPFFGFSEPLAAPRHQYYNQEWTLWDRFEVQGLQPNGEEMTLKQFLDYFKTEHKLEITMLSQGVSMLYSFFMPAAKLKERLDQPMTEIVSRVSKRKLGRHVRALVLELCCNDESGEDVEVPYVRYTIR
Protocol: Since Mdm2 autoubiquitination depends on the activity of E1 and E2, some of these might act by inhibiting E1. In fact, some did block the formation of thiolester linkages between ^32P-labeled ubiquitin and E1 (FIG. 1B). The compound 4-[4-(5-nitro-furan-2-ylmethylene)-3,5-dioxo-pyrazolidin-1-yl]-benzoic acid methyl acid was active at a concentration of 20-50 μM.
b. “E1 Only” Assay. • 2 μl rabbit E1+12 μl of 1× reaction buffer are mixed together with the test compound followed by addition of 1 μl of ^32P Ub. After incubating for 10 minutes at room temperature, the samples are denatured using loading buffer without reducing agent and subjected to SDS-PAGE under non-reducing conditions to maintain thiol-ester linkages and exposure as above.

[6] = system: p53; test: p53-driven luciferase reporter assay; type: cell-based
Excerpt: FIG. 5B depicts the results of reporter assays showing that the p53 induced by 4-[4-(5-nitro-furan-2-ylmethylene)-3,5-dioxo-pyrazolidin-1-yl]-benzoic acid methyl acid is transcriptionally active.

[7] = system: cyclin E; test: Degradation of in vitro translated cyclin E in S-100 cytosolic extract; type: biochemical
Excerpt: Cytosolic extracts from cells (S-100) contain all the components for ubiquitination and proteasomal degradation. To further evaluate 4-[4-(5-nitro-furan-2-ylmethylene)-3,5-dioxo-pyrazolidin-1-yl]-benzoic acid methyl acid, we made use of in vitro translated cyclin E, which is degraded in S-100 in a time-dependent manner (FIG. 3, upper panel, lanes 1-4).

[8] = system: J588 mouse myeloma cells; test: Killing of myeloma cells; type: cell-based
Excerpt: FIG. 6B depicts the dose-depending killing of J588 mouse myeloma cells by proteasome and E1 inhibitor by 4-[4-(5-nitro-furan-2-ylmethylene)-3,5-dioxo-pyrazolidin-1-yl]-benzoic acid methyl acid.
While p53 induces apoptotic cell death in many tumor cells, it generally only induces growth arrest in untransformed cells. This has been the rationale for many studies targeting the p53 system.

T1 sequence (P62837 whole entry): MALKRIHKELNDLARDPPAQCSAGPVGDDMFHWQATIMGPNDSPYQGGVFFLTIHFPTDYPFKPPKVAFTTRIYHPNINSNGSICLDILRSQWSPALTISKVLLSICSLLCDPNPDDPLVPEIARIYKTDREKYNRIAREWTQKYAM

concentration at which the compound was active [5]: 20 to 50 µM
SMILES: COC(=O)c1ccc(N2NC(=O)/C(=C/c3ccc([N+](=O)[O-])o3)C2=O)cc1 [E1-41, 4-[4-(5-nitro-furan-2-ylmethylene)-3,5-dioxo-pyrazolidin-1-yl]-benzoic acid methyl acid]
accumulation of ubiquitylated proteins in proteasome inhibitor-treated cells [1]: inhibit the accumulation of ubiquiylated proteins
transfer of ubiquitin from E1 to E2 (formation of E2-ubiquitin complex) [2]: did not affect transfer of ubiquitin from E1 to E2
IκBα phosphorylation following TNFα treatment [3]: blocks IκBα phosphorylation
autoubiquitination of Nedd4 [4]: inhibits the autoubiquitination of Nedd4
activation of p53-driven luciferase reporter [6]: activated a p53-driven luciferase reporter to a level comparable to adriamycin
cyclin E degradation in S-100 ([7]; no exogenous E1): block cyclin E degradation
cyclin E degradation in S-100 after addition of purified exogenous E1 ([7]; purified exogenous E1 added to the reaction mixture): inhibition of cyclin E degradation was prevented
killing of myeloma cells [8]: kills myeloma cells in a dose-dependent manner
